{
  "source": "patent US20260041677A1",
  "about": "“COMPOSITIONS AND METHODS FOR TREATING ADENOID CYSTIC CARCINOMA” (ELEVAR THERAPEUTICS, INC., priority 2022, published 2026)",
  "test_system": "recurrent or metastatic (R/M) adenoid cystic carcinoma (ACC)",
  "test": "Phase 2 single-arm study of rivoceranib in R/M ACC: response, DoR, PFS, TTP per RECIST V1.1",
  "format": "in vivo, human",
  "excerpt": "Overall design: An ongoing Phase 2, multicenter, open-label, single-arm study was designed to evaluate the efficacy and safety of rivoceranib in patients with recurrent or metastatic (R/M) adenoid cystic carcinoma (ACC) of all anatomic sites of origin. The study was composed of an initial screening phase (up to 28 days), a treatment phase, and a follow-up phase.\nObjectives: Primary objectives were to evaluate safety & tolerability, efficacy by objective response rate (ORR), best overall response (BOR), time to response, duration of response, disease control rate, and duration of disease control. Secondary objectives were to evaluate efficacy as measured by overall survival, progression-free survival and event-free survival. The primary efficacy endpoint was the ORR, defined as the proportion of patients who achieved confirmed complete response (CR) or partial response (PR) per Response Evaluation Criteria in Solid Tumors (RECIST) Version 1.1 (V1.1). The secondary efficacy endpoints were duration of response (DoR) assessed by the investigator and a blinded independent review committee (BIRC), progression-free survival (PFS) assessed at 6 months, 12 months, and 2 years by investigator and BIRC, Time to Progression (TTP) assessed by investigator and BIRC, and overall survival (OS) assessed at 1 and 2 years. Exploratory efficacy endpoints include ORR per CHOI response criteria (based on the journal article, Choi et al., Correlation of computed tomography and positron emission tomography in patients with metastatic gastrointestinal stromal tumor treated at a single institution with imatinib mesylate: proposal of new computed tomography response criteria. J Clin Oncol. 2007; 25(13): 1753-1759) by a blinded independent review […] (BIRC) and disease control rate (DCR) per RECIST V1.1 by Investigator and BIRC. Except for CHOI response criteria, all response endpoints were assessed per RECIST V1.1 by Investigator and BIRC.\nPatients: The study was conducted at 11 study sites in the USA and South Korea. A total of 80 patients were enrolled and received at least 1 dose of study drug (rivoceranib). Fifty-three patients were enrolled in the USA and 27 patients were enrolled in Korea. Eligible patients were 18 years or older and were required to have histologically or cytologically confirmed R/M ACC of any anatomic location not amenable to curative surgery or radiotherapy. Due to the indolent nature of the disease, patients were required to have evidence of disease progression by RECIST V1.1 within the 6 months prior to study entry, evidenced by: ≥20% increase in radiologically or clinically measurable lesions or appearance of new lesions. Patients were required to have at least 1 measurable target lesion by RECIST V1.1. There were no restrictions on prior systemic therapies. Patients were permitted to have prior VEGFR TKI exposure if dosage was discontinued within 5 half-lives prior to rivoceranib treatment. The patients were permitted if they have an Eastern Cooperative Oncology Group (ECOG) performance status of 0 or 1. Patients with treated central nervous system metastases were permitted if they were stable for four weeks prior to study treatment. Eligible patients had documented primary diagnosis of solid tumor cancer of ACC for which anti-VEGFR-2 targeted therapy could be applicable. The majority of patients had primary tumors in the major (33.8%) or minor (58.8%) salivary glands; 6 patients (7.5%) had primary tumors in other locations: lung, breast, trachea, Cowper's gland, intracranial temporal lobe and lymph node. Median time from original ACC diagnosis was 69.62 months. The majority of patients (92.5%) had metastatic disease.\nDose determination: Enrolled patients initiated treatment with rivoceranib 700 mg daily (QD). Up to 3 levels of dose reduction for toxicity were permitted: 500 mg QD, 300 mg QD and 200 mg QD. Patients received treatment until disease progression, unacceptable toxicity, death or withdrawal of consent to treatment. […]",
  "key": {"[1]": {"conditions": "RECIST V1.1, Investigator, Systemic therapy-naïve N = 29, 700 mg QD start"}, "[2]": {"conditions": "RECIST V1.1, Investigator, Systemic therapy-treated N = 44, 700 mg QD start"}, "[3]": {"conditions": "RECIST V1.1, Investigator, Total N = 73, 700 mg QD start"}, "[4]": {"conditions": "RECIST V1.1, Investigator, Total N = 73, Kaplan-Meier, 700 mg QD start"}, "[5]": {"conditions": "RECIST V1.1, Investigator, VEGFRi-naïve N = 60, 700 mg QD start"}, "[6]": {"conditions": "RECIST V1.1, Investigator, VEGFRi-naïve N = 60, Kaplan-Meier, 700 mg QD start"}, "[7]": {"conditions": "RECIST V1.1, Investigator, VEGFRi-treated N = 13, 700 mg QD start"}, "[8]": {"conditions": "RECIST V1.1, Investigator, patients with ≥20% pre-study increase in lesions, N = 51"}, "[9]": {"conditions": "confirmed objective response by Investigator"}, "[10]": {"conditions": "within the 19.5-month follow-up, N = 80"}},
  "note": "Several values for one entry are separate records, joined by “and”; a condition that tells them apart may be missing. Identical values can stand only once.",
  "data": [
    {"smiles": "N#CC1(c2ccc(NC(=O)c3cccnc3NCc3ccncc3)cc2)CCCC1", "note": "[Rivoceranib, N-[4-(1-cyanocyclopentyl)phenyl]-2-{[(pyridin-4-yl)methyl]amino}pyridine-3-carboxamide]", "values": [
      {"measurement": "DoR 25th percentile", "setting": "[1]", "value": 7.4, "unit": "months"},
      {"measurement": "DoR 75th percentile", "setting": "[1]", "value": 14.9, "unit": "months"},
      {"measurement": "DoR Median", "setting": "[1]", "value": 13.5, "unit": "months"},
      {"measurement": "BOR: Complete Response", "setting": "[2]", "value": 0, "unit": "%"},
      {"measurement": "BOR: Not Evaluable", "setting": "[2]", "value": 0, "unit": "%"},
      {"measurement": "BOR: Partial Response", "setting": "[2]", "value": "(11.4) %"},
      {"measurement": "BOR: Progressive Disease", "setting": "[2]", "value": "(11.4) %"},
      {"measurement": "BOR: Stable Disease", "setting": "[2]", "value": "(77.3) %"},
      {"measurement": "DoR 25th percentile", "setting": "[2]", "value": 14.6, "unit": "months"},
      {"measurement": "DoR 75th percentile", "setting": "[2]", "value": 17.3, "unit": "months"},
      {"measurement": "DoR Median", "setting": "[2]", "value": 17.3, "unit": "months"},
      {"measurement": "BOR: Complete Response", "setting": "[3]", "value": 0, "unit": "%"},
      {"measurement": "BOR: Not Evaluable", "setting": "[3]", "value": 0, "unit": "%"},
      {"measurement": "Median TTP (95% CI)", "setting": "[3]", "value": "9.1 (8.5-13.8) months"},
      {"measurement": "PFS landmark 6-months, % (95% CI)", "setting": "[3]", "value": "76.3 (64.2-84.8) %"},
      {"measurement": "PFS landmark 12-months, % (95% CI)", "setting": "[3]", "value": "39.7 (27.4-51.6) %"},
      {"measurement": "DoR 25th percentile", "setting": "[4]", "value": 11.9, "unit": "months"},
      {"measurement": "DoR 75th percentile", "setting": "[4]", "value": 17.3, "unit": "months"},
      {"measurement": "DoR Median (95% CI)", "setting": "[4]", "value": "14.9 months and 14.9 (4.9, 17.3) months"},
      {"measurement": "Median PFS (95% CI)", "setting": "[4]", "value": "9.0 (7.5-12.8) months"},
      {"measurement": "BOR: Complete Response", "setting": "[5]", "value": 0, "unit": "%"},
      {"measurement": "BOR: Not Evaluable", "setting": "[5]", "value": 0, "unit": "%"},
      {"measurement": "BOR: Partial Response", "setting": "[5]", "value": "11 (18.3) %"},
      {"measurement": "BOR: Progressive Disease", "setting": "[5]", "value": "6 (10.0) %"},
      {"measurement": "BOR: Stable Disease", "setting": "[5]", "value": "43 (71.7) %"},
      {"measurement": "DCR (disease control rate, CR, PR or SD ≥3 months)", "setting": "[5]", "value": "37 (61.7) %"},
      {"measurement": "Median PFS (95% CI)", "setting": "[5]", "value": "9.0 (7.3-12.8) months"},
      {"measurement": "Median TTP (95% CI)", "setting": "[5]", "value": "9.0 (7.3-13.5) months"},
      {"measurement": "ORR (objective response rate)", "setting": "[5]", "value": "11 (18.3) %"},
      {"measurement": "PFS landmark 6-months, % (95% CI)", "setting": "[5]", "value": "74.5 (60.7-84.1) %"},
      {"measurement": "PFS landmark 12-months, % (95% CI)", "setting": "[5]", "value": "38.7 (25.5-51.8) %"},
      {"measurement": "DoR 25th percentile", "setting": "[6]", "value": 11.9, "unit": "months"},
      {"measurement": "DoR 75th percentile", "setting": "[6]", "value": 17.3, "unit": "months"},
      {"measurement": "DoR Median (95% CI)", "setting": "[6]", "value": "14.9 (4.9, 17.3) months"},
      {"measurement": "BOR: Complete Response", "setting": "[7]", "value": 0, "unit": "%"},
      {"measurement": "BOR: Not Evaluable", "setting": "[7]", "value": 0, "unit": "%"},
      {"measurement": "BOR: Partial Response", "setting": "[7]", "value": 0, "unit": "%"},
      {"measurement": "BOR: Progressive Disease", "setting": "[7]", "value": "2 (15.4) %"},
      {"measurement": "BOR: Stable Disease", "setting": "[7]", "value": "11 (84.6) %"},
      {"measurement": "DCR (disease control rate, CR, PR or SD ≥3 months)", "setting": "[7]", "value": "10 (76.9) %"},
      {"measurement": "Median PFS (95% CI)", "setting": "[7]", "value": "10.6 (7.1-17.7) months"},
      {"measurement": "Median TTP (95% CI)", "setting": "[7]", "value": "16.4 (8.9-19.1) months"},
      {"measurement": "ORR (objective response rate)", "setting": "[7]", "value": 0, "unit": "%"},
      {"measurement": "PFS landmark 6-months, % (95% CI)", "setting": "[7]", "value": "84.6 (51.2-95.9) %"},
      {"measurement": "PFS landmark 12-months, % (95% CI)", "setting": "[7]", "value": "43.0 (13.8-69.8) %"},
      {"measurement": "estimated PFS rate at 9 months", "setting": "RECIST V1.1, Investigator, efficacy evaluable, 700 mg QD start", "value": 53.6, "unit": "%"},
      {"measurement": "Maximum Change in SOT During the first 6 Months on Treatment with Rivoceranib, Mean", "setting": "[8]", "value": "−9.9", "unit": "mm"},
      {"measurement": "Maximum Change in SOT During the first 6 Months on Treatment with Rivoceranib, Median", "setting": "[8]", "value": "−7.0", "unit": "mm"},
      {"measurement": "Maximum Change in SOT at Any Time on Treatment, Mean", "setting": "[8]", "value": "−10.4", "unit": "mm"},
      {"measurement": "Maximum Change in SOT at Any Time on Treatment, Median", "setting": "[8]", "value": "−8.0", "unit": "mm"},
      {"measurement": "patients with initial response observed at 100 mg", "setting": "[9]", "value": 1, "unit": "patient"},
      {"measurement": "patients with initial response observed at 200 mg", "setting": "[9]", "value": 1.3, "unit": "%"},
      {"measurement": "patients with initial response observed at 300 mg", "setting": "[9]", "value": 4.1, "unit": "%"},
      {"measurement": "patients with initial response observed at 500 mg", "setting": "[9]", "value": 5.5, "unit": "%"},
      {"measurement": "patients with initial response observed at 700 mg", "setting": "[9]", "value": 2.7, "unit": "%"},
      {"measurement": "patients who died due to disease progression or cancer despite treatment", "setting": "[10]", "value": "≥ 21.3", "unit": "%"},
      {"measurement": "patients who had disease progression despite treatment", "setting": "[10]", "value": 48.5, "unit": "%"}
    ]}
  ]
}
